In the series the test system is CCRIS mutagenicity, Ames/micronucleus/aberration tests. The series is described as follows: CCRIS mutagenicity studies.
Where [1] appears, read: Test System: AMES SALMONELLA TYPHIMURIUM, Strain/Indicator: TA98, Metabolic Activation: NONE, Method: STANDARD PLATE.
The mark [2] stands for this setting: Test System: AMES SALMONELLA TYPHIMURIUM, Strain/Indicator: TA98, Metabolic Activation: RAT, LIVER, S-9, AROCLOR 1254, Method: STANDARD PLATE.
Setting [3] is: Test System: AMES SALMONELLA TYPHIMURIUM, Strain/Indicator: TA100, Metabolic Activation: NONE, Method: STANDARD PLATE.
[4] abbreviates: Test System: AMES SALMONELLA TYPHIMURIUM, Strain/Indicator: TA100, Metabolic Activation: RAT, LIVER, S-9, AROCLOR 1254, Method: STANDARD PLATE.
Setting [5] is: Test System: AMES SALMONELLA TYPHIMURIUM, Strain/Indicator: TA1535, Metabolic Activation: NONE, Method: STANDARD PLATE.
Setting [6] is: Test System: AMES SALMONELLA TYPHIMURIUM, Strain/Indicator: TA1535, Metabolic Activation: RAT, LIVER, S-9, AROCLOR 1254, Method: STANDARD PLATE.
The mark [7] stands for this setting: Test System: AMES SALMONELLA TYPHIMURIUM, Strain/Indicator: TA1537, Metabolic Activation: NONE, Method: STANDARD PLATE.
The mark [8] stands for this setting: Test System: AMES SALMONELLA TYPHIMURIUM, Strain/Indicator: TA1537, Metabolic Activation: RAT, LIVER, S-9, AROCLOR 1254, Method: STANDARD PLATE.
The mark [9] stands for this setting: Test System: AMES SALMONELLA TYPHIMURIUM, Strain/Indicator: TA1538, Metabolic Activation: NONE, Method: STANDARD PLATE.
Setting [10] is: Test System: AMES SALMONELLA TYPHIMURIUM, Strain/Indicator: TA98, Metabolic Activation: NONE, Method: PREINCUBATION
[11] abbreviates: Test System: AMES SALMONELLA TYPHIMURIUM, Strain/Indicator: TA100, Metabolic Activation: NONE, Method: PREINCUBATION

Experimental findings from PubChem BioAssay AID1259407 (Chemical Carcinogenesis Research Information System (CCRIS), 2018) are described below.

Molecules are shown by their SMILES. Calls of active or inactive are those of the source. No rule for the calls is given here.

For `O=c1c(O)c(O)c1=O`, the mutagenic call by setting is: (Test System: AMES SALMONELLA TYPHIMURIUM, Strain/Indicator: TA98, Metabolic Activation: HAMSTER, LIVER, S-9, AROCLOR 1254, Method: STANDARD PLATE) “inactive; negative”; under setting [1], “inactive; negative”; under setting [2], “inactive; negative”; (Test System: AMES SALMONELLA TYPHIMURIUM, Strain/Indicator: TA100, Metabolic Activation: HAMSTER, LIVER, S-9, AROCLOR 1254, Method: STANDARD PLATE) “inactive; negative”; under setting [3], “inactive; negative”; under setting [4], “inactive; negative”. The mutagenic call (Test System: AMES SALMONELLA TYPHIMURIUM, Strain/Indicator: TA1535, Metabolic Activation: HAMSTER, LIVER, S-9, AROCLOR 1254, Method: STANDARD PLATE) was “inactive; negative”; the mutagenic call under setting [5] is “inactive; negative”; the mutagenic call under setting [6] was “inactive; negative”; the mutagenic call (Test System: AMES SALMONELLA TYPHIMURIUM, Strain/Indicator: TA1537, Metabolic Activation: HAMSTER, LIVER, S-9, AROCLOR 1254, Method: STANDARD PLATE) is “inactive; negative”; the mutagenic call under setting [7] was “inactive; negative”; the mutagenic call under setting [8] is “inactive; negative”. Also, the mutagenic call (Test System: AMES SALMONELLA TYPHIMURIUM, Strain/Indicator: TA1538, Metabolic Activation: HAMSTER, LIVER, S-9, AROCLOR 1254, Method: STANDARD PLATE) was “inactive; negative”; the mutagenic call under setting [9] was “inactive; negative”; the mutagenic call (Test System: AMES SALMONELLA TYPHIMURIUM, Strain/Indicator: TA1538, Metabolic Activation: RAT, LIVER, S-9, AROCLOR 1254, Method: STANDARD PLATE) is “inactive; negative”; the mutagenic call (Test System: MOUSE LYMPHOMA, Strain/Indicator: L5178Y (TK+/TK-), Metabolic Activation: NONE, Method: SUSPENSION/PLATE) was “inactive; negative. reevaluation of results: negative”; the mutagenic call (Test System: MOUSE LYMPHOMA, Strain/Indicator: L5178Y (TK+/TK-), Metabolic Activation: RAT, LIVER, S-9, AROCLOR 1254, Method: SUSPENSION/PLATE) was “inactive; negative. reevaluation of results: negative”.
For `COC(=O)c1oc([N+](=O)[O-])c(Cl)c1Cl`, the mutagenic call runs as follows: under setting [1], “active; positive”; (Test System: AMES SALMONELLA TYPHIMURIUM, Strain/Indicator: TA100(NR), Metabolic Activation: NONE, Method: STANDARD PLATE) “active; positive”; (Test System: AMES SALMONELLA TYPHIMURIUM, Strain/Indicator: TA100, Metabolic Activation: NONE, Method: STANDARD PLATE (ANAEROBIC INCUBATION)) “active; positive”.
`COC(=O)/C(C#N)=C/c1ccco1`: under setting [10], the mutagenic call was “inactive; negative”.
As to `Nc1c(O)cccc1C(=O)O`, under setting [11], the mutagenic call was “inactive; negative”.
As to `CC(Oc1ccc(Oc2cnc3cc(Cl)ccc3n2)cc1)C(=O)O` (stereo not given), the mutagenic call reads like this: (Test System: Mouse lymphoma, Strain/Indicator: L5178Y (tk+/tk-), Metabolic Activation: None, Method: Suspension/plate) “active; positive”; (Test System: Mouse lymphoma, Strain/Indicator: L5178Y (tk+/tk-), Metabolic Activation: Rat, Liver, S-9, Aroclor 1254, Method: Suspension/plate) “active; positive”.
For `CCCCCNC(=O)/C=C/c1ccc([N+](=O)[O-])o1`, the mutagenic call under setting [10] is “active; positive”.
With `CC(=O)Nc1ccc2[nH]c3ccccc3c2c1`, the mutagenic call was “inactive; negative” under setting [1]; “active; positive” (Test System: AMES SALMONELLA TYPHIMURIUM, Strain/Indicator: TA98, Metabolic Activation: RAT, LIVER, S-9, PHENOBARBITAL, Method: STANDARD PLATE); “inactive; negative” under setting [3]; “inactive; negative” (Test System: AMES SALMONELLA TYPHIMURIUM, Strain/Indicator: TA100, Metabolic Activation: RAT, LIVER, S-9, PHENOBARBITAL, Method: STANDARD PLATE); “inactive; negative” under setting [7]; “inactive; negative” (Test System: AMES SALMONELLA TYPHIMURIUM, Strain/Indicator: TA1537, Metabolic Activation: RAT, LIVER, S-9, PHENOBARBITAL, Method: STANDARD PLATE). Moreover, the mutagenic call was “inactive; negative” under setting [9]; “active; positive” (Test System: AMES SALMONELLA TYPHIMURIUM, Strain/Indicator: TA1538, Metabolic Activation: RAT, LIVER, S-9, PHENOBARBITAL, Method: STANDARD PLATE); “inactive; negative” (Test System: AMES SALMONELLA TYPHIMURIUM, Strain/Indicator: TA1977, Metabolic Activation: NONE, Method: STANDARD PLATE); “inactive; negative” (Test System: AMES SALMONELLA TYPHIMURIUM, Strain/Indicator: TA1977, Metabolic Activation: RAT, LIVER, S-9, PHENOBARBITAL, Method: STANDARD PLATE).
Consider `COC(=O)C1=CCCN(C)C1`, for which the mutagenic call was “inactive; negative” under setting [1]; “inactive; negative” (Test System: AMES SALMONELLA TYPHIMURIUM, Strain/Indicator: TA98, Metabolic Activation: RAT, LIVER, S-9, Method: STANDARD PLATE); “active; positive” under setting [3]; “active; positive” (Test System: AMES SALMONELLA TYPHIMURIUM, Strain/Indicator: TA100, Metabolic Activation: RAT, LIVER, S-9, Method: STANDARD PLATE).
As for `c1ccc2c(c1)ccc1cc3c(ccc4ccccc43)cc12`, the mutagenic call is “inactive; negative” (Test System: AMES SALMONELLA TYPHIMURIUM, Strain/Indicator: TA98, Metabolic Activation: HAMSTER, LIVER, S-9, AROCLOR 1254 (5 OR 30%), Method: PREINCUBATION); “active; positive” (Test System: AMES SALMONELLA TYPHIMURIUM, Strain/Indicator: TA98, Metabolic Activation: HAMSTER, LIVER, S-9, AROCLOR 1254 (10%), Method: PREINCUBATION); “active; positive” (Test System: AMES SALMONELLA TYPHIMURIUM, Strain/Indicator: TA98, Metabolic Activation: RAT, LIVER, S-9, AROCLOR 1254 (30%), Method: PREINCUBATION); “active; positive” under setting [2]; “active; positive” (Test System: AMES SALMONELLA TYPHIMURIUM, Strain/Indicator: TA100, Metabolic Activation: HAMSTER, LIVER, S-9, AROCLOR 1254 (5, 10 OR 30%), Method: PREINCUBATION); “active; positive” (Test System: AMES SALMONELLA TYPHIMURIUM, Strain/Indicator: TA100, Metabolic Activation: MOUSE, LIVER, S-9, 3-METHYLCHOLANTHRENE, Method: STANDARD PLATE). Further, the mutagenic call is “active; positive” (Test System: AMES SALMONELLA TYPHIMURIUM, Strain/Indicator: TA100, Metabolic Activation: MOUSE, LIVER, S-10, AROCLOR 1254); “inactive; negative” under setting [11]; “active; positive” (Test System: AMES SALMONELLA TYPHIMURIUM, Strain/Indicator: TA100, Metabolic Activation: RAT, LIVER, S-9, AROCLOR 1254 (30%), Method: PREINCUBATION); “active; positive” under setting [4]; “active; positive” under setting [8]; “active; positive” (Test System: CHINESE HAMSTER V-79, Strain/Indicator: V-79/6-THIOGUANINE, Metabolic Activation: RAT, LIVER, S-9, PHENOBARBITAL, Method: STANDARD PLATE). In addition, where the note is “Test System: CHINESE HAMSTER V-79, Strain/Indicator: V-79/OUABAIN, Metabolic Activation: CELL-MEDIATED, Method: STANDARD PLATE”, the mutagenic call was “active; positive”.
With `O=C(CCNNC(=O)c1ccncc1)NCc1ccccc1`, the mutagenic call runs as follows: under setting [1], “inactive; negative”; under setting [2], “inactive; negative”; under setting [3], “active; positive”; under setting [4], “active; positive”; under setting [5], “active; positive”; under setting [6], “active; positive”. For the same compound, the mutagenic call runs as follows: under setting [7], “inactive; negative”; under setting [8], “inactive; negative”.
